Measured values as given in patent US20250188123A1, “PROTEASE INHIBITORS” (Regents of the University of Minnesota, priority 2022, published 2025).
Like-named read-outs stand apart in the source and are kept apart here. *1 amine or outer side, *2 acyl side, *3 side chain or, on linkers, in order; H or OH if unused. Where a SMILES comes first, the peptide text is derived from it. [ ]: non-standard residue; d: D form. ξ: configuration not given here. ξTHIQ1CO(6-Me) = Cc1ccc2c(c1)CCNC2C(=O)O; X3 = O=C([C@@H]1Cc2ccccc2N1[*:1])[*:2]; Aad = N[C@@H](CCCC(=O)O)C(=O)O; Tle = CC(C)(C)[C@H](N)C(=O)O

How the values were obtained:
human caspase-2 = target: T1, human caspase-2 (Homo sapiens, UniProt P42575); assay: Fluorescent enzyme assay, Casp2 (AFC substrate Z-VDVAD-AFC); type: biochemical; conditions: for Ki (Casp3) / Ki (Casp2): selectivity Casp2 over Casp3
T1 construct: inferred from pET23b, XhoI reverse primer without stop codon, Ni-NTA purification) (C); made in house; host or cells: E. coli BL21(DE3)
T1 sequence (P42575 170-452): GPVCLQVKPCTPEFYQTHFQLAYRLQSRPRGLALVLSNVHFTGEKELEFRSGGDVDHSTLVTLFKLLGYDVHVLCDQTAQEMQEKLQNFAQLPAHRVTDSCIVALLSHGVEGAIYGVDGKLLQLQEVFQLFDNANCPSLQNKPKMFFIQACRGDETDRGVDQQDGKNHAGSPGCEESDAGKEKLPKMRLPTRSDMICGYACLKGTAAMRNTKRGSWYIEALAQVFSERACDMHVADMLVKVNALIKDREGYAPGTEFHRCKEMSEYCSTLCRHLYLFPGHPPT
Excerpt: (§1) Human recombinant Casp1, 6, 7, and 9 were purchased from BioVision (Milpitas/CA, USA). AFC fluorogenic substrates and control peptides (AcYVAD-CHO, AcVDVAD-CHO, AcDEVD-CHO, AcVEID-CHO, and AcLEHD-CHO) were purchased from Bachem (Torrance/CA, USA). The pET23b vector encoding human caspase-3 was a gift of Dr. Michelle Arkin at University of California, San Francisco. Expression and purification of Casp3 was guided by previously described protocols (Denault J-B, Salvesen G S., Current Protocols in Protein Science, 2002, 30(1), 21.13. 1-21.13. 15). Briefly, the plasmid was transformed into E. coli Rosetta 2 pLyss DE3 cells that were cultured at 1 L scale in shake flasks. Five hours post induction with IPTG, cells were harvested through centrifugation (4000 g for 10 minutes at 4° C.), lysed by sonication, and centrifuged again for 30 minutes at 20000 g. Supernatant was resuspended in buffer (100 mM Tris pH 8.0, 500 mM NaCl). Purification was achieved by nickel-affinity chromatography followed by ion-exchange chromatography. Protein was diluted to 0.5 mg/mL and stored at −80° C. in 100 mM Tris, pH 8.0 supplemented with 10% glycerol. The typical yield for the expression, isolation, and purification was approximately 3 mg/L. The DNA encoding human caspase-2 (hCASP2, amino acids 170-452, free of the N-terminal caspase activation and recruitment domain) open reading frame (ORF) was amplified via polymerase chain reaction (PCR) from full-length hCASP2 cDNA (Origene, Rockville, MD; Cat #SC321316) using following primers: forward, 5′-[…]-3′; reverse, 5′-[…]-3′. The PCR fragment was then cloned into the pET23b vector (Millipore Sigma, Burlington, MA), and DNA sequence was verified by classic Sanger sequencing analyses. Site-directed mutageneses were carried out using a QuikChange II XL site-directed mutagenesis kit (Agilent Technologies, Santa Clara, CA; Cat #200522) according to the manufacturer's instruction. Expression of recombinant hCASP2 was induced using 150 μM isopropyl-β-D-thiogalactopyranoside (IPTG) (Promega, Madison, WI) in the BL21(DE3) E. coli strain (Millipore Sigma) at 16° C. for 14 hours while shaking at 250 rpm. Cells were then harvested via centrifugation at 6,000 g, 4° C. for 15 minutes, followed by lysis via sonication. Proteins were initially purified using HisPur Ni-NTA resin (Thermo Fisher Scientific, Waltham, MA) followed by metal chelating chromatography (5 mL HiTrap Chelating HP columns (GE Healthcare Life Sciences, Piscataway, NJ)). Further purification was carried out using anion exchange chromatography (5 mL HiTrap Q HP columns (GE Healthcare Life Sciences)) for hCASP2. Proteins were stored in 1× phosphate-buffered saline (pH 7.4) at 10 mg/mL (concentration determined using a BCA assay (Thermo Fisher Scientific)), −80° C. until further use.
(§2) KM values were determined experimentally to be the following: Casp1: 5.9 μM; Casp2: 37.1 μM; Casp3: 7.6 μM; Casp6: 14.5 μM; Casp7: 13.8 μM; Casp9: 149.1 μM. Enzymes were diluted in buffer: 100 mM MES (pH 6.5) for Casp2 and or 100 mM HEPES (pH 7.0) for all other caspases, plus 150 mM NaCl, 0.1% CHAPS, 1.5% sucrose, 10 mM DTT. Enzyme concentrations were 0.05 U/well for Casp1, 6, and 7; 0.5 U/well for Casp9, 20 nM/well for Casp2, and 2 nM/well for Casp3. Enzyme in buffer (19 μL) was added per well in a black 384-well Corning 4514 assay plate. Test compounds were serially diluted in dimethyl sulfoxide (DMSO) and plated in duplicate into a Corning 3656 transfer plate. Test compound was added to assay plates in 0.5 μL aliquots per well and mixed 10 times using a BiomekFX (Beckman Coulter). Compound and enzyme mixture was incubated at 37° C. for 5 minutes for aldehyde warheads and 45 minutes for cyano warheads. […]

human caspase-3 = target: T2, human caspase-3 (Homo sapiens, UniProt P42574); assay: Fluorescent enzyme assay, Casp3 (AFC substrate AcDEVD-AFC); type: biochemical
T2 construct: made in house; host or cells: E. coli Rosetta 2 pLysS DE3
T2 sequence (P42574 29-277): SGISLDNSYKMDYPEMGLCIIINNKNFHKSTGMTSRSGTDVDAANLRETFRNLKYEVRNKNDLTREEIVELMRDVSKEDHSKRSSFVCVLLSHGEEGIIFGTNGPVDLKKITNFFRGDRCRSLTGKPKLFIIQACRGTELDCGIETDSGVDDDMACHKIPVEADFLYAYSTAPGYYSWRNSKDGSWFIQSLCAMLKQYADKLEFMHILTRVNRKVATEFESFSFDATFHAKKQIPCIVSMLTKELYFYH
Excerpt: as §1, §2

`Cc1ccc2c(c1)CCN(C(=O)[C@@H](NC(=O)[C@H](CCCC(=O)O)NC(=O)[C@@H]1Cc3ccccc3N1)C(C)(C)C)C2C(=O)N[C@H](C=O)CC(=O)O` (stereo partly drawn) [Compound 11, (S)-6-(((S)-1-((S)-1-(((S)-1-carboxy-3-oxopropan-2-yl)carbamoyl)-6-methyl-3,4-dihydroisoquinolin-2(1H)-yl)-3,3-dimethyl-1-oxobutan-2-yl)amino)-5-((S)-indoline-2-carboxamido)-6-oxohexanoic acid hydrotrifluoroacetate] (H-[X3][Aad][Tle][ξTHIQ1CO(6-Me)]D-aldehyde) was tested, and the Ki (human caspase-2) was 4.17 µM, the “Ki (Casp3) / Ki (Casp2)” value (human caspase-2) was 24 and the Ki (human caspase-3) was over 100 µM.
In the case of `CC(=O)N1c2ccccc2C[C@H]1C(=O)N[C@@H](CCCC(=O)O)C(=O)N[C@H](C(=O)N1CCc2cc(C)ccc2[C@H]1C(=O)N[C@H](C=O)CC(=O)O)[C@H](C)OCc1ccccc1` [Compound 8, (S)-5-((S)-1-acetylindoline-2-carboxamido)-6-(((2S,3S)-3-(benzyloxy)-1-((S)-1-(((S)-1-carboxy-3-oxopropan-2-yl)carbamoyl)-6-methyl-3,4-dihydroisoquinolin-2(1H)-yl)-1-oxobutan-2-yl)amino)-6-oxohexanoic acid], the Ki (human caspase-2; mean ± SEM of N independent experiments, each in duplicate or triplicate, read-out: pKi ± SEM Casp 2 (converted)) is reported as 6.03 µM, the “Ki (Casp3) / Ki (Casp2)” value (human caspase-2) is reported as 17 and the Ki (human caspase-3; mean ± SEM of N independent experiments, each in duplicate or triplicate, read-out: pKi ± SEM Casp 3 (converted)) is reported as over 100 µM.
With `Cc1ccc2c(c1)CCN(C(=O)CNC(=O)[C@H](CCCC(=O)O)NC(=O)[C@@H]1Cc3ccccc3N1)[C@@H]2C(=O)N[C@H](C=O)CC(=O)O` [Compound 5, (S)-6-((2-((S)-1-(((S)-1-carboxy-3-oxopropan-2-yl)carbamoyl)-6-methyl-3,4-dihydroisoquinolin-2(1H)-yl)-2-oxoethyl)amino)-5-((S)-indoline-2-carboxamido)-6-oxohexanoic acid hydrotrifluoroacetate] the Ki (human caspase-2) was 0.017 µM, the “Ki (Casp3) / Ki (Casp2)” value (human caspase-2) was 324 and the Ki (human caspase-3) was 5.5 µM.
